Assay results reported in ChEMBL document CHEMBL1201862, “PubChem BioAssay data set” (2004).
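Method: 48-hour compound exposure of cells in 96-well plates, five concentrations, linear interpolation of endpoints. The concentration for 50% growth inhibition is given as GI50.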 Activity calls are given as the source filed them. No stated cut-off is given here; in the data, active = GI50 up to about 1.1 µM and inactive = higher.

How the values were obtained:
Assay in all cases: inhibition of tumour cell growth, NCI panel, 48 h
NCI-H226 = system: NCI-H226
SF-268 = system: SF-268
SF-539 = system: SF-539
RXF 393 = system: RXF 393
LOX IMVI = system: LOX IMVI
HOP-62 = system: HOP-62
SR = system: SR
OVCAR-4 = system: OVCAR-4
CCRF-CEM = system: CCRF-CEM
UACC-257 = system: UACC-257
HL-60 = system: HL-60
Hs-578T = system: Hs-578T
MDA-N = system: MDA-N
HCT-15 = system: HCT-15
BT-549 = system: BT-549
EKVX = system: EKVX
MDA-MB-435 = system: MDA-MB-435
K562 = system: K562
SK-MEL-28 = system: SK-MEL-28
MDA-MB-231 = system: MDA-MB-231
SNB-75 = system: SNB-75
HOP-92 = system: HOP-92
SN12C = system: SN12C
M14 = system: M14
RPMI-8226 = system: RPMI-8226
NCI/ADR-RES = system: NCI/ADR-RES
COLO 205 = system: COLO 205
MCF7 = system: MCF7
OVCAR-3 = system: OVCAR-3
A498 = system: A498
T47D = system: T47D
NCI-H522 = system: NCI-H522
U-251 = system: U-251
786-0 = system: 786-0
HCC 2998 = system: HCC 2998
OVCAR-5 = system: OVCAR-5
UACC-62 = system: UACC-62
OVCAR-8 = system: OVCAR-8
HT-29 = system: HT-29
Malme-3M = system: Malme-3M
SW-620 = system: SW-620
IGROV-1 = system: IGROV-1
HCT-116 = system: HCT-116
SK-MEL-5 = system: SK-MEL-5
UO-31 = system: UO-31
PC-3 = system: PC-3
MOLT-4 = system: MOLT-4
SF-295 = system: SF-295
ACHN = system: ACHN
DU-145 = system: DU-145
SNB-19 = system: SNB-19
KM12 = system: KM12
CAKI-1 = system: CAKI-1
SK-MEL-2 = system: SK-MEL-2
NCI-H23 = system: NCI-H23
NCI-H460 = system: NCI-H460
A549 = system: A549
TK-10 = system: TK-10
SK-OV-3 = system: SK-OV-3

Measured: GI50

CCCCCC(O)(CCCCC)CCCCCCCCC1=C(O)C(=O)c2ccccc2C1=O
inactive: NCI-H226 14 µM | SF-268 6.95 µM | SF-539 11.2 µM | RXF 393 12.9 µM | LOX IMVI 4.97 µM | HOP-62 11.6 µM | SR 3.44 µM | OVCAR-4 9.79 µM | CCRF-CEM 6.12 µM | UACC-257 12.6 µM | HL-60 3.51 µM | Hs-578T 16.1 µM | MDA-N 10.5 µM | BT-549 14.7 µM | EKVX 10.7 µM | MDA-MB-435 8.53 µM | K562 3.08 µM | SK-MEL-28 11.7 µM | MDA-MB-231 11.4 µM | SNB-75 28.1 µM | HOP-92 14.6 µM | SN12C 9.04 µM | M14 10.8 µM | RPMI-8226 3.38 µM | NCI/ADR-RES 4.4 µM | COLO 205 20.7 µM | MCF7 9.62 µM | OVCAR-3 14.3 µM | A498 13.3 µM | T47D 26.4 µM | NCI-H522 12.2 µM | U-251 7.73 µM | 786-0 6.32 µM | HCC 2998 16.6 µM | OVCAR-5 20.5 µM | UACC-62 8.17 µM | OVCAR-8 7.19 µM | HT-29 14.1 µM | Malme-3M 11.5 µM | SW-620 7.46 µM | IGROV-1 6.08 µM | HCT-116 3.83 µM | SK-MEL-5 3.62 µM | UO-31 10.3 µM | PC-3 7.5 µM | MOLT-4 3.33 µM | SF-295 7.91 µM | ACHN 8.85 µM | DU-145 8.53 µM | SNB-19 5.75 µM | KM12 5.62 µM | CAKI-1 12 µM | SK-MEL-2 12.1 µM | NCI-H23 8.15 µM | NCI-H460 5.28 µM | A549 9.64 µM | TK-10 15 µM | SK-OV-3 15.6 µM
4.18 µM: HCT-15

Nc1nc(Cl)cc(NCC2CC(O)(CO)C2)n1 (stereo not drawn)
inactive: NCI-H226 > 100 µM | SF-268 > 100 µM | SF-539 > 100 µM | RXF 393 > 100 µM | LOX IMVI > 100 µM | HOP-62 > 100 µM | SR > 10 µM | OVCAR-4 > 100 µM | CCRF-CEM > 100 µM | UACC-257 > 100 µM | HL-60 > 100 µM | Hs-578T > 100 µM | MDA-N > 100 µM | BT-549 > 100 µM | EKVX > 100 µM | MDA-MB-435 > 100 µM | K562 > 100 µM | SK-MEL-28 > 100 µM | MDA-MB-231 > 100 µM | SNB-75 > 100 µM | HOP-92 > 100 µM | SN12C > 100 µM | RPMI-8226 > 100 µM | NCI/ADR-RES > 100 µM | COLO 205 > 100 µM | MCF7 > 100 µM | OVCAR-3 > 100 µM | A498 > 100 µM | T47D > 100 µM | NCI-H522 > 100 µM | U-251 > 100 µM | 786-0 > 100 µM | HCC 2998 > 100 µM | OVCAR-5 > 100 µM | UACC-62 > 100 µM | OVCAR-8 > 100 µM | HT-29 > 100 µM | Malme-3M > 100 µM | SW-620 > 100 µM | IGROV-1 > 100 µM | HCT-116 > 100 µM | SK-MEL-5 > 100 µM | UO-31 > 100 µM | PC-3 > 100 µM | MOLT-4 > 100 µM | SF-295 > 100 µM | ACHN > 100 µM | DU-145 > 100 µM | KM12 > 100 µM | CAKI-1 > 100 µM | SK-MEL-2 > 100 µM | NCI-H23 > 100 µM | NCI-H460 > 100 µM | A549 > 100 µM | TK-10 > 100 µM | SK-OV-3 > 100 µM
> 100 µM: HCT-15

O=C(c1cc(Cl)cc(Cl)c1)N(Cc1cccnc1)C(=S)N(Cc1cccnc1)C(=O)c1cc(Cl)cc(Cl)c1
25.2 µM: HCT-15
inactive: NCI-H226 52.1 µM | SF-268 41.3 µM | SF-539 23.4 µM | RXF 393 34.2 µM | LOX IMVI 34.1 µM | HOP-62 29.9 µM | SR 16.1 µM | OVCAR-4 27.3 µM | CCRF-CEM 17.1 µM | UACC-257 33 µM | HL-60 25.3 µM | Hs-578T 60.8 µM | MDA-N 31.3 µM | BT-549 29.2 µM | EKVX 87.1 µM | MDA-MB-435 85.9 µM | K562 24.4 µM | SK-MEL-28 97.3 µM | MDA-MB-231 26.5 µM | SNB-75 92.7 µM | HOP-92 36.6 µM | SN12C 41.4 µM | M14 26.4 µM | RPMI-8226 4.37 µM | NCI/ADR-RES 37.4 µM | COLO 205 15.3 µM | MCF7 5.69 µM | OVCAR-3 21.7 µM | A498 27.4 µM | T47D 44.7 µM | NCI-H522 23.8 µM | U-251 22.2 µM | 786-0 17.3 µM | HCC 2998 19.3 µM | OVCAR-5 35.6 µM | UACC-62 45.7 µM | OVCAR-8 28.8 µM | HT-29 31.9 µM | Malme-3M 55.8 µM | SW-620 27.9 µM | HCT-116 31.1 µM | SK-MEL-5 23.3 µM | UO-31 24.8 µM | PC-3 18.4 µM | MOLT-4 38.9 µM | SF-295 55.5 µM | ACHN 22.5 µM | DU-145 41.8 µM | SNB-19 52.6 µM | KM12 24.5 µM | CAKI-1 41.3 µM | SK-MEL-2 31.7 µM | NCI-H23 63.1 µM | NCI-H460 64.3 µM | A549 > 100 µM | TK-10 31.3 µM | SK-OV-3 > 100 µM

CCOC(=O)C(=CNc1ccc(NC2=NCC(C)S2)cc1)C(=O)OCC (stereo not drawn)
15.2 µM: HCT-15
inactive: NCI-H226 42.4 µM | SF-268 33.1 µM | SF-539 47.8 µM | RXF 393 30.5 µM | LOX IMVI 30.1 µM | HOP-62 50 µM | SR 22.3 µM | OVCAR-4 9.62 µM | UACC-257 26.5 µM | HL-60 2.38 µM | Hs-578T 25.5 µM | MDA-N 25.7 µM | BT-549 15.2 µM | EKVX 37.3 µM | MDA-MB-435 20.2 µM | SK-MEL-28 20.8 µM | MDA-MB-231 34.3 µM | SNB-75 22.1 µM | HOP-92 30.4 µM | SN12C 41 µM | M14 31.5 µM | RPMI-8226 9.48 µM | NCI/ADR-RES 23.1 µM | COLO 205 35.6 µM | MCF7 30.3 µM | OVCAR-3 18.2 µM | A498 28.8 µM | T47D 24.8 µM | NCI-H522 2.66 µM | U-251 26.2 µM | 786-0 26.1 µM | HCC 2998 33.4 µM | OVCAR-5 > 100 µM | UACC-62 11 µM | OVCAR-8 24.5 µM | HT-29 23.6 µM | Malme-3M 24.3 µM | SW-620 31 µM | IGROV-1 26.8 µM | HCT-116 35.2 µM | SK-MEL-5 16.5 µM | UO-31 17.8 µM | PC-3 16.1 µM | MOLT-4 3.15 µM | SF-295 29.6 µM | ACHN 18.7 µM | DU-145 46.5 µM | SNB-19 37.8 µM | KM12 16.6 µM | CAKI-1 45.3 µM | SK-MEL-2 19.7 µM | NCI-H23 28.1 µM | NCI-H460 31.6 µM | A549 35.6 µM | TK-10 46.1 µM | SK-OV-3 60 µM
active: CCRF-CEM 0.0908 µM | K562 0.382 µM
